Laboratory results: ChEMBL document CHEMBL4725412, “Augmenting the Activity of Macrolide Adjuvants against Acinetobacter baumannii” (2020)
One block for each compound: values may come before it.

How the values were obtained:
Format in all cases: functional
Acinetobacter baumannii [1] = test: Antibacterial activity against Acinetobacter baumannii AB5075 assessed as reduction in microbial growth incubated for 16 hrs by broth microdilution method
Acinetobacter baumannii [2] = test: Potentiation of clarithromycin-induced antibacterial activity against Acinetobacter baumannii 4878 assessed as fold reduction in clarithromycin MIC at 10 uM incubated for 16 hrs by broth microdilution method
Acinetobacter baumannii [3] = test: Potentiation of clarithromycin-induced antibacterial activity against Acinetobacter baumannii 4456 assessed as fold reduction in clarithromycin MIC at 10 uM incubated for 16 hrs by broth microdilution method
Acinetobacter baumannii [4] = test: Potentiation of clarithromycin-induced antibacterial activity against Acinetobacter baumannii 3806 assessed as fold reduction in clarithromycin MIC at 10 uM incubated for 16 hrs by broth microdilution method
Acinetobacter baumannii [5] = test: Potentiation of clarithromycin-induced antibacterial activity against Acinetobacter baumannii AB5075 assessed as fold reduction in clarithromycin MIC at 30 uM incubated for 16 hrs in presence of clarithromycin by broth microdilution method
Acinetobacter baumannii [6] = test: Potentiation of clarithromycin-induced antibacterial activity against Acinetobacter baumannii AB5075 assessed as fold reduction in clarithromycin MIC at 20 uM incubated for 16 hrs in presence of clarithromycin by broth microdilution method
Acinetobacter baumannii [7] = test: Potentiation of clarithromycin-induced antibacterial activity against Acinetobacter baumannii 3560 assessed as fold reduction in clarithromycin MIC at 10 uM incubated for 16 hrs by broth microdilution method
Acinetobacter baumannii [8] = test: Potentiation of clarithromycin-induced antibacterial activity against Acinetobacter baumannii 5001 assessed as fold reduction in clarithromycin MIC at 10 uM incubated for 16 hrs by broth microdilution method
Acinetobacter baumannii [9] = test: Potentiation of clarithromycin-induced antibacterial activity against Acinetobacter baumannii 4025 assessed as fold reduction in clarithromycin MIC at 10 uM incubated for 16 hrs by broth microdilution method
Acinetobacter baumannii [10] = test: Potentiation of clarithromycin-induced antibacterial activity against Acinetobacter baumannii 4027 assessed as fold reduction in clarithromycin MIC at 10 uM incubated for 16 hrs by broth microdilution method
Acinetobacter baumannii [11] = test: Potentiation of clarithromycin-induced antibacterial activity against Acinetobacter baumannii 4052 assessed as fold reduction in clarithromycin MIC at 10 uM incubated for 16 hrs by broth microdilution method
Acinetobacter baumannii [12] = test: Potentiation of clarithromycin-induced antibacterial activity against Acinetobacter baumannii 4498 assessed as fold reduction in clarithromycin MIC at 10 uM incubated for 16 hrs by broth microdilution metho
Acinetobacter baumannii [13] = test: Potentiation of clarithromycin-induced antibacterial activity against Acinetobacter baumannii AB5075 assessed as clarithromycin MIC at […] incubated for 16 hrs by broth microdilution method (reference value: […] ug/ml); conditions: dose 30 µM
Acinetobacter baumannii [14] = test: Potentiation of clarithromycin-induced antibacterial activity against Acinetobacter baumannii 3785 assessed as fold reduction in clarithromycin MIC at 10 uM incubated for 16 hrs by broth microdilution method
Acinetobacter baumannii [15] = test: Potentiation of clarithromycin-induced antibacterial activity against Acinetobacter baumannii 4795 assessed as fold reduction in clarithromycin MIC at 10 uM incubated for 16 hrs by broth microdilution method
Acinetobacter baumannii [16] = test: Potentiation of clarithromycin-induced antibacterial activity against Acinetobacter baumannii AB5075 assessed as fold reduction in clarithromycin MIC at 7.5 uM incubated for 16 hrs in presence of clarithromycin broth microdilution method
Acinetobacter baumannii [17] = test: Potentiation of clarithromycin-induced antibacterial activity against Acinetobacter baumannii AB5075 assessed as fold reduction in clarithromycin MIC at 10 uM incubated for 16 hrs in presence of clarithromycin by broth microdilution method
Acinetobacter baumannii [18] = test: Potentiation of clarithromycin-induced antibacterial activity against Acinetobacter baumannii 5197 assessed as fold reduction in clarithromycin MIC at 10 uM incubated for 16 hrs by broth microdilution method
Acinetobacter baumannii [19] = test: Potentiation of clarithromycin-induced antibacterial activity against Acinetobacter baumannii AB5075 assessed as clarithromycin MIC at 5 uM incubated for 16 hrs by broth microdilution method (reference value: […] ug/ml)
Acinetobacter baumannii [20] = test: Potentiation of clarithromycin-induced antibacterial activity against Acinetobacter baumannii 5256 assessed as fold reduction in clarithromycin MIC at 10 uM incubated for 16 hrs by broth microdilution method
Acinetobacter baumannii [21] = test: Potentiation of clarithromycin-induced antibacterial activity against Acinetobacter baumannii 5711 assessed as fold reduction in clarithromycin MIC at 10 uM incubated for 16 hrs by broth microdilution method
Acinetobacter baumannii [22] = test: Potentiation of clarithromycin-induced antibacterial activity against Acinetobacter baumannii AB5075 assessed as clarithromycin MIC at 20 uM incubated for 16 hrs by broth microdilution method (reference value: […] ug/ml)
Acinetobacter baumannii [23] = test: Potentiation of clarithromycin-induced antibacterial activity against Acinetobacter baumannii 4269 assessed as fold reduction in clarithromycin MIC at 10 uM incubated for 16 hrs by broth microdilution method
Acinetobacter baumannii [24] = test: Potentiation of clarithromycin-induced antibacterial activity against Acinetobacter baumannii 3927 assessed as fold reduction in clarithromycin MIC at 10 uM incubated for 16 hrs by broth microdilution method
Acinetobacter baumannii [25] = test: Potentiation of clarithromycin-induced antibacterial activity against Acinetobacter baumannii 4448 assessed as fold reduction in clarithromycin MIC at 10 uM incubated for 16 hrs by broth microdilution method
Acinetobacter baumannii [26] = test: Potentiation of clarithromycin-induced antibacterial activity against Acinetobacter baumannii 4026 assessed as fold reduction in clarithromycin MIC at 10 uM incubated for 16 hrs by broth microdilution method
Acinetobacter baumannii [27] = test: Potentiation of clarithromycin-induced antibacterial activity against Acinetobacter baumannii AB5075 assessed as clarithromycin MIC at 10 uM incubated for 16 hrs by broth microdilution method (reference value: […] ug/ml)
Acinetobacter baumannii [28] = test: Potentiation of clarithromycin-induced antibacterial activity against Acinetobacter baumannii 8967 assessed as fold reduction in clarithromycin MIC at 10 uM incubated for 16 hrs by broth microdilution method
Acinetobacter baumannii [29] = test: Potentiation of clarithromycin-induced antibacterial activity against Acinetobacter baumannii 4857 assessed as fold reduction in clarithromycin MIC at 10 uM incubated for 16 hrs by broth microdilution method
Acinetobacter baumannii [30] = test: Potentiation of clarithromycin-induced antibacterial activity against Acinetobacter baumannii AB5075 assessed as clarithromycin MIC at 7.5 uM incubated for 16 hrs by broth microdilution method (reference value: […] ug/ml)
Acinetobacter baumannii [31] = test: Potentiation of clarithromycin-induced antibacterial activity against Acinetobacter baumannii 4957 assessed as fold reduction in clarithromycin MIC at 10 uM incubated for 16 hrs by broth microdilution method
Acinetobacter baumannii [32] = test: Potentiation of clarithromycin-induced antibacterial activity against Acinetobacter baumannii 4991 assessed as fold reduction in clarithromycin MIC at 10 uM incubated for 16 hrs by broth microdilution method
Acinetobacter baumannii [33] = test: Potentiation of clarithromycin-induced antibacterial activity against Acinetobacter baumannii 4490 assessed as fold reduction in clarithromycin MIC at 10 uM incubated for 16 hrs by broth microdilution method
Acinetobacter baumannii [34] = test: Potentiation of clarithromycin-induced antibacterial activity against Acinetobacter baumannii AB5075 assessed as fold reduction in clarithromycin MIC at 5 uM incubated for 16 hrs in presence of clarithromycin by broth microdilution method
Acinetobacter baumannii [35] = test: Potentiation of clarithromycin-induced antibacterial activity against Acinetobacter baumannii AB5075 assessed as assessed as fold reduction in clarithromycin MIC at 10 uM by CLSI based microdilution method
Acinetobacter baumannii [36] = test: Antibacterial activity against Acinetobacter baumannii AB5075 assessed as reduction in microbial growth by CLSI based microdilution method
Acinetobacter baumannii [37] = test: Potentiation of clarithromycin-induced antibacterial activity against Acinetobacter baumannii AB5075 assessed as clarithromycin MIC at 30 uM by CLSI based microdilution method (reference value: […] ug/ml)
Acinetobacter baumannii [38] = test: Potentiation of clarithromycin-induced antibacterial activity against Acinetobacter baumannii AB5075 assessed as fold reduction in clarithromycin MIC at 30 uM by broth microdilution method (reference value: 512 ug/ml)
Acinetobacter baumannii [39] = test: Potentiation of clarithromycin-induced antibacterial activity against Acinetobacter baumannii AB5075 assessed as clarithromycin MIC at 30 uM after 2 to 9 days by broth microdilution method (reference value: […] ug/ml); conditions: time day 2-9
Acinetobacter baumannii [40] = test: Potentiation of clarithromycin-induced antibacterial activity against Acinetobacter baumannii AB5075 assessed as fold reduction in clarithromycin MIC at 30 uM after 2 to 9 days by broth microdilution method; conditions: time day 2-9
Acinetobacter baumannii [41] = test: Potentiation of clarithromycin-induced antibacterial activity against Acinetobacter baumannii AB5075 assessed as clarithromycin MIC at 10 uM by CLSI based microdilution method (reference value: […] ug/ml)

MIC (Acinetobacter baumannii [1]): > 200 µM
MIC (Acinetobacter baumannii [13]): 0.5 µg/mL
MIC (Acinetobacter baumannii [19]): 8 µg/mL
MIC (Acinetobacter baumannii [22]): 0.5 µg/mL
MIC (Acinetobacter baumannii [27]): 0.5 µg/mL
MIC (Acinetobacter baumannii [30]): 1 µg/mL
Structure (SMILES): Cl.Nc1nc(-c2ccc(NC(=O)c3ccc(Cl)c(Cl)c3)cc2F)c[nH]1
fold change (FC) (Acinetobacter baumannii [2]): 8
fold change (FC) (Acinetobacter baumannii [3]): 8
fold change (FC) (Acinetobacter baumannii [4]): 8
fold change (FC) (Acinetobacter baumannii [5]): 64
fold change (FC) (Acinetobacter baumannii [6]): 64
fold change (FC) (Acinetobacter baumannii [7]): 8
fold change (FC) (Acinetobacter baumannii [8]): 8
fold change (FC) (Acinetobacter baumannii [9]): 8
fold change (FC) (Acinetobacter baumannii [10]): 8
fold change (FC) (Acinetobacter baumannii [11]): 8
fold change (FC) (Acinetobacter baumannii [12]): 8
fold change (FC) (Acinetobacter baumannii [14]): 8
fold change (FC) (Acinetobacter baumannii [15]): 8
fold change (FC) (Acinetobacter baumannii [16]): 32
fold change (FC) (Acinetobacter baumannii [17]): 64
fold change (FC) (Acinetobacter baumannii [18]): 8
fold change (FC) (Acinetobacter baumannii [20]): 8
fold change (FC) (Acinetobacter baumannii [21]): 8
fold change (FC) (Acinetobacter baumannii [23]): 8
fold change (FC) (Acinetobacter baumannii [24]): 8
fold change (FC) (Acinetobacter baumannii [25]): 8
fold change (FC) (Acinetobacter baumannii [26]): 8
fold change (FC) (Acinetobacter baumannii [28]): 8
fold change (FC) (Acinetobacter baumannii [29]): 8
fold change (FC) (Acinetobacter baumannii [31]): 8
fold change (FC) (Acinetobacter baumannii [32]): 8
fold change (FC) (Acinetobacter baumannii [33]): 8
fold change (FC) (Acinetobacter baumannii [34]): 4

MIC (Acinetobacter baumannii [36]): 100 µM
MIC (Acinetobacter baumannii [37]): 0.25 µg/mL
MIC (Acinetobacter baumannii [38]): 2 µg/mL
MIC (Acinetobacter baumannii [39]): 0.25 µg/mL
MIC (Acinetobacter baumannii [41]): 2 µg/mL
Structure (SMILES): Cl.Nc1nc(-c2ccc(NC(=O)c3cc(Cl)cc(Cl)c3)cc2)c[nH]1
fold change (FC) (Acinetobacter baumannii [35]): 16
fold change (FC) (Acinetobacter baumannii [40]): 128
